Measurements from US20150320723A1, “Use of Small Molecule Unfolder Protein Response Modulators to Treat Tumors With Active Sonic Hedgehog (SSH) Signaling Due To Smoothened (SMO) Mutation” (ST. JUDE CHILDREN'S RESEARCH HOSPITAL, priority 2013, published 2015).
“Also recorded” adds a separate entry of the source.

How the values were obtained:
[1] = system: wings from wild type Myc-Smo expressing flies; test: Thapsigargin feeding of larvae: adult wing phenotype, wild type Myc-Smo; assay type: in vivo, Drosophila; details: larvae grown at 22° C. on food containing thapsigargin (1 uM) vs vehicle
Protocol: (§1) To confirm that thapsigargin treatment of transgenic Drosophila would not nonspecifically alter UAS/GAL4 transgene expression, the effect of feeding thapsigargin or vehicle control to larvae expressing a GFP transgene under control of the MS1096-Gal4 wing pouch driver was first tested (FIG. 8A). […] Next either wild type or C320A Myc-Smo proteins were expressed at 22° C. under control of MS1096-Gal4, and grew larvae on food containing either vehicle or thapsigargin (FIGS. 8C-D). Consistent with the in vitro results, wings from wild type Myc-Smo expressing flies were unaffected by thapsigargin treatment (FIGS. 8C-C′ compared to B, control).
(§2) Fly stocks were maintained at 18° C. on Jazz mix agarose (Fisher). Crosses were performed at 22° C. or 29° C. as indicated. UAS-myc-smo, UAS-myc-smoC320A and UAS-mycsmoC339A (Carroll et al., 2012 [31]) were expressed under control of MS1096-Gal4. UAS-Xbp1-GFP (Ryon et al., 2007 [44]) was expressed under control of sgs3-Gal4. […] For wing analyses, crosses were performed at least twice, and multiple progeny analyzed. […]
(§3) For drug treatment, 1 to 24 hour MS1096>myc-smoC320A embryos were collected and transferred to vials containing 2 mL Jazz agarose containing vehicle (ethanol) or thapsigargin (Sigma) at a final concentration of 1 uM. Drug feeding was performed across two separate crosses and multiple progeny analyzed. […]

[2] = system: mSmoM2-induced gli1 expression; test: qPCR analysis of endogenous gli1 induction in NIH3T3 cells expressing mSmoM2; assay type: cell-based, mouse
Protocol: (§4) Next, it was decided to determine whether the effects observed following thermal ER stress induction could be recapitulated by an ER stress modulator that is specific to the UPR. To this end, Smo-expressing cells were treated with the potent ER stress inducing compound thapsigargin. Wild type, C318A or M2 mSmo proteins was expressed in NIH3T3 cells, and treated with vehicle or thapsigargin for 4 hours prior to lysis (FIG. 6A). […] The exact mechanism by which gli1 expression is increased in the wild type mSmo background in response to thapsigargin was not known.
To assess gli1 and smo expression, NIH3T3 cells were plated as above and transfected using Fugene 6 (Promega). […] RNA was extracted using RNeasy kit (Qiagen) ˜16 hours after media exchange. cDNA was synthesized from 5 ug of RNA using SuperScript III first strand synthesis system (Invitrogen). qPCR reactions were performed on cDNA diluted 1:10 using SYBR Green PCR master mix (Applied Biosystems). GAPDH was used as a reference gene and results were analyzed using a standard 2^−ααCt method (Livak & Schmittgen, 2001 [63]). The following gene specific primers were used: […]
(§5) qPCR analysis was performed three times in triplicate, and all data pooled. Error bars indicate standard error of the mean.

smo expression = test: qPCR analysis of smo expression in NIH3T3 cells expressing wild type or M2 mSmo; assay type: cell-based, mouse; details: thapsigargin treatment
Protocol: (§6) To assess gli1 and smo expression, NIH3T3 cells were plated as above and transfected using Fugene 6 (Promega). Approximately 30 hours post transfection, culture media was replaced with complete media containing 250 nM Thapsigargin or vehicle (ethanol) control. RNA was extracted using RNeasy kit (Qiagen) ˜16 hours after media exchange. cDNA was synthesized from 5 ug of RNA using SuperScript III first strand synthesis system (Invitrogen). qPCR reactions were performed on cDNA diluted 1:10 using SYBR Green PCR master mix (Applied Biosystems). GAPDH was used as a reference gene and results were analyzed using a standard 2^−ααCt method (Livak & Schmittgen, 2001 [63]). The following gene specific primers were used: […]
as §5

[3] = system: gli1 expression in cells expressing wild type mSmo; test: qPCR analysis of gli1 expression in NIH3T3 cells expressing wild type mSmo; assay type: cell-based, mouse; details: wild type mSmo-expressing NIH3T3 cells with thapsigargin; normalized to GAPDH
Protocol: as §4, §6
qPCR analysis was performed three times in triplicate, and all data pooled. […]

[4] = system: GFP transgene under control of MS1096-Gal4; test: Thapsigargin feeding of MS1096>GFP larvae: transgene expression in wing imaginal discs; assay type: in vivo, Drosophila; details: larvae fed thapsigargin (1 uM in food) at 22° C.
Protocol: as §1
(§7) For drug treatment, 1 to 24 hour MS1096>myc-smoC320A embryos were collected and transferred to vials containing 2 mL Jazz agarose containing vehicle (ethanol) or thapsigargin (Sigma) at a final concentration of 1 uM. Drug feeding was performed across two separate crosses and multiple progeny analyzed. Representative wings from the resulting adult flies were mounted and imaged as above.

Myc-SmoC320A protein = test: Immunofluorescence of wing imaginal discs from drug-fed larvae: Myc-SmoC320A protein; assay type: in vivo, Drosophila; details: discs from thapsigargin-fed larvae at 22° C. vs vehicle
Protocol: as §1, §7
(§8) pAc-myc-smo constructs were expressed in Schneider 2 (S2) cells as described (Carroll et al., 2012 [31]). […] For all indirect immunofluorescence, the indicated primary antibodies were detected using Alexa Fluor (Invitrogen) secondary antibodies conjugated to 488 or 555 fluorophores. […]

M2 mSmo (mSmoM2) = test: Thapsigargin sensitivity analysis: mSmo protein stability in NIH3T3 cells, western blot of whole-cell lysates; assay type: cell-based, mouse; details: 1 uM thapsigargin, 4 hours prior to lysis, vs vehicle
Protocol: as §4
(§9) For protein stability analysis in mammalian cells, ˜1×10^6NIH3T3 cells were transfected with 2 ug of wild type or mutant pcDNA3.1-amino expression vector (Carroll et al., 2012 [31]). For temperature sensitivity analysis, transfected cells were maintained at 37° C. for ˜44 hours, and then shifted to 40° C. for 4 hours prior to lysis. Whole-cell lysates were prepared in modified RIPA buffer (50 mM Tris-HCl, pH 7.4, 150 mM NaCl, 0.25% deoxycholic acid, 1% NP-40, 1 mM EDTA, 0.1% SDS, 0.5 mM DTT, and 1× PIC (Roche)) by rocking for 30 minutes at 4° C. as described (Nachtergaele et al., 2012 [62]). Cell extracts were cleared by centrifuging at 16,000×g at 4° C. for 45 minutes. Supernatants were collected and analyzed by SDS-Page and western blot using anti-GADD153/CHOP (B-3, SCBT) anti-Smo (E5, SCBT) and anti-tubulin (Cell Signaling) antibodies. For thapsigargin sensitivity analysis, NIH3T3 cells expressing wild type or mutant mSmo protein at 37° C. were treated with vehicle (ethanol) or 1 uM thapsigargin (Sigma) in DMEM containing 0.5% fetal calf serum for 4 hrs prior to lysis. Whole-cell lysates were prepared in modified RIPA buffer and analyzed as above.

wild type mSmo = test: as above; assay type: cell-based, mouse; details: 1 uM thapsigargin, 4 hours prior to lysis, vs vehicle
Protocol: as §4, §9

C318A mSmo = test: as above; assay type: cell-based, mouse; details: 1 uM thapsigargin, 4 hours prior to lysis, vs vehicle
Protocol: as §4, §9

[5] = system: Myc-SmoC320A-induced Hh gain-of-function wing phenotypes; test: Thapsigargin feeding of larvae: adult wing phenotype, Myc-SmoC320A; assay type: in vivo, Drosophila; details: larvae grown at 22° C. on food containing thapsigargin (1 uM) vs vehicle
Protocol: as §1, §2, §3

[6] = system: C320A-mediated ectopic stabilization of Ci; test: Immunofluorescence of wing imaginal discs from drug-fed larvae: full-length Ci; assay type: in vivo, Drosophila; details: discs from thapsigargin-fed larvae at 22° C. vs vehicle
Protocol: as §1, §7, §8

## C/C=C(/C)C(=O)O[C@H]1C(C)=C2[C@H]([C@@H]1OC(=O)CCCCCCC)[C@@](C)(OC(C)=O)C[C@H](OC(=O)CCC)[C@@]1(O)[C@H]2OC(=O)[C@@]1(C)O [thapsigargin]
[1]
  wing phenotype of wild type Myc-Smo expressing flies: unaffected
[1]; listed as Thapsigargin
  wing phenotype of wild type Myc-Smo expressing flies: did not affect
[2]; NIH3T3 cells, 250 nM thapsigargin ~16 hours (method), vehicle gives approx. 40-fold
  reduction of mSmoM2-mediated gli1 induction: approximately 50%
[2]; NIH3T3 cells, over-night treatment with 200 nM thapsigargin (FIG. 6B legend)
  mSmoM2-induced gli1 expression (qualitative): specific attenuation
[2]; mSmoM2-expressing NIH3T3 cells with thapsigargin, normalized to GAPDH
  gli1 expression, fold over the mSmoWT baseline: ~18 fold
Smo expression
  smo expression (wild type and M2 transcripts): modest increase; also recorded: increased modestly
[3]
  gli1 expression, fold over baseline: ~4 fold
[4]
  GFP transgene expression: unaffected
Myc-SmoC320A protein
  Myc-SmoC320A protein level in wing imaginal discs: significantly reduced; also recorded: significant reduction
M2 mSmo (mSmoM2)
  M2 mSmo protein stability: destabilized
Wild type mSmo
  wild type mSmo protein stability: not significantly affected
C318A mSmo
  C318A mSmo protein stability: destabilized
[5]
  Myc-SmoC320A-induced Hh gain-of-function wing phenotype: significantly attenuated; also recorded: significantly reduced
[6]
  C320A-mediated ectopic stabilization of Ci in wing imaginal discs: reduced Ci stabilization; also recorded: dramatically reduced
